Data reported in US20250262161A1, “COMPOSITION, METHOD FOR ITS PREPARATION AND ITS USE FOR INCREASING THE SOLUBILITY OF ACTIVE SUBSTANCES” (Philipps-Universität Marburg, priority 2021, published 2025).

Assay: Solubility of curcumin in water (amount dissolved, UV/Vis measurement)
Assay type: physicochemical
Settings: visual yellow colouring of supernatant
Protocol: Curcumin was first incorporated into eggshell flour. Two different methods were used for this purpose. […] Ethanol was evaporated without stirring (HP). […] Ethanol was evaporated with stirring (R). For comparison, curcumin was mixed with eggshell meal (physical mixture=PM) and added to water as a pure substance (bulk). From all samples, the amount of dissolved curcumin was measured. […] The dissolved amount of curcumin was determined at different time points by UV/Vis measurement. […] For method 2, the solubility was approximately 50 times higher.
The physical mixture contained similar amounts.

dissolution of curcumin in the water phase (discolouration of aqueous supernatant): no dissolution of curcumin occurred
SMILES: COc1cc(/C=C/C(=O)CC(=O)/C=C/c2ccc(O)c(OC)c2)ccc1O [pure substance, Curcumin]
